The term EC50 denotes the concentration at which the effect is half-maximal. High values mean a less potent agent, low ones a more potent agent.

Several values for one entry are separate records, joined by “and”; a condition that tells them apart may be missing. Equal entries are not always repeated. Structures can show the parent of a compound that is named as a salt. Marks after values point to notes of the source that are not given here.

The source of these data is US11059824B2, “Substituted purines as TLR7 agonists” (Primmune Therapeutics, Inc., priority 2018, dated 2021).

One experiment has as its target human TLR7 (Homo sapiens (Human), UniProt Q9NYK1). In words: TLR7 reporter assay (HEK293-TLR-NF-κB inducible SEAP reporter). The class given is cell-based. Particulars: HEK293 cells stably expressing human TLR7 with NF-κB-driven SEAP reporter; 15-24 hours. From the text:
The engagement of TLRs by cognate ligands triggers downstream signaling cascades, leading to the activation of NF-κB and other transcription factors which initiate various immunomodulatory effects. The human embryonic kidney cell line, HEK293, is essentially non-responsive to TLR agonists, but ectopic expression of TLRs in these cells allows cognate agonists to activate endogenous NF-κB. Accordingly, the HEK293-TLR-NF-κB inducible reporter system is used to assay TLR agonists. HEK293 cell lines stably expressing human TLR7 or TLR8 together with an NF-κB-driven-secreted alkaline phosphatase (SEAP) reporter were invented at InvivoGen (San Diego, Calif., USA) and used to assess compounds of the present invention for TLR7 and TLR8 agonist activities. Cells were seeded at 2-5×10^4 cells/well in 96 well plates ([…]) and treated with various concentrations of compound (10 μl) for 15-24 hours. SEAP activity was determined by measuring OD at 650 nm; the media used to culture the cell lines contains the reagents required for SEAP detection. The EC50 values in Table 2 are calculated from fitting the dose response of measured SEAP activity for each compound to the following equation: Y=ymax*c^nh/(EC50^nh+c^nh)+blank where Y is the experimentally measured OD650 at concentration c of test article, blank is the observed OD650 in the absence of TLR7 agonist, ymax is the difference between the measured OD650 in the presence of either 28.5 μM resiquimod or 1.675 μM CL307 and the blank and values of EC50 and nh are determined by nonlinear least squares analysis.

Experiment [1] concerns interferon-α production in hPBMCs. In words: Induction of interferon-α production in hPBMCs. It counts as cell-based, human. To be noted: interferon-α production from hPBMCs; for Weighted MEC: geometric mean of all individual MECs across all donors, 24 hours; for individual MEC values: per donor. As for the experimental part: Treatment of hPBMCs with a TLR7 agonist typically induces substantial production of interferon-α as well as lesser amounts of a variety of other cytokines and chemokines. A typical experiment uses hPBMCs isolated from a healthy donor and placed in replicate cell culture wells; typically 1.0-7.5×10^6 cells are placed in each well. Test compound is added and the cells cultured for 24 hours at 37° C. in a humidified atmosphere containing 5% CO2 post-addition; untreated controls are included. Secreted interferon-α production is measured using an a multisubtype interferon-α ELISA kit like those from PBL Assay Sciences or specifically as IFNα2a as part of a panel of cytokines and chemokines using luminex methodologies. The minimal effective concentration (MEC) is the minimum concentration in a dose response curve where a significant increase in interferon-α production (generally at least 20 pg/ml) is observed above baseline. MEC values for each compound are determined for at least three donors. The weighted MEC for each compound is the geometric mean of all individual MECs across all donors. Concentrations tested typically consist of a two-fold dilution series starting at 100 μM. In the calculation of weighted MEC, any value >100 μM is arbitrarily set to 200 μM unless all MECs for a compound exceed 100 μM

Chain of human TLR7 (Q9NYK1 27-1049): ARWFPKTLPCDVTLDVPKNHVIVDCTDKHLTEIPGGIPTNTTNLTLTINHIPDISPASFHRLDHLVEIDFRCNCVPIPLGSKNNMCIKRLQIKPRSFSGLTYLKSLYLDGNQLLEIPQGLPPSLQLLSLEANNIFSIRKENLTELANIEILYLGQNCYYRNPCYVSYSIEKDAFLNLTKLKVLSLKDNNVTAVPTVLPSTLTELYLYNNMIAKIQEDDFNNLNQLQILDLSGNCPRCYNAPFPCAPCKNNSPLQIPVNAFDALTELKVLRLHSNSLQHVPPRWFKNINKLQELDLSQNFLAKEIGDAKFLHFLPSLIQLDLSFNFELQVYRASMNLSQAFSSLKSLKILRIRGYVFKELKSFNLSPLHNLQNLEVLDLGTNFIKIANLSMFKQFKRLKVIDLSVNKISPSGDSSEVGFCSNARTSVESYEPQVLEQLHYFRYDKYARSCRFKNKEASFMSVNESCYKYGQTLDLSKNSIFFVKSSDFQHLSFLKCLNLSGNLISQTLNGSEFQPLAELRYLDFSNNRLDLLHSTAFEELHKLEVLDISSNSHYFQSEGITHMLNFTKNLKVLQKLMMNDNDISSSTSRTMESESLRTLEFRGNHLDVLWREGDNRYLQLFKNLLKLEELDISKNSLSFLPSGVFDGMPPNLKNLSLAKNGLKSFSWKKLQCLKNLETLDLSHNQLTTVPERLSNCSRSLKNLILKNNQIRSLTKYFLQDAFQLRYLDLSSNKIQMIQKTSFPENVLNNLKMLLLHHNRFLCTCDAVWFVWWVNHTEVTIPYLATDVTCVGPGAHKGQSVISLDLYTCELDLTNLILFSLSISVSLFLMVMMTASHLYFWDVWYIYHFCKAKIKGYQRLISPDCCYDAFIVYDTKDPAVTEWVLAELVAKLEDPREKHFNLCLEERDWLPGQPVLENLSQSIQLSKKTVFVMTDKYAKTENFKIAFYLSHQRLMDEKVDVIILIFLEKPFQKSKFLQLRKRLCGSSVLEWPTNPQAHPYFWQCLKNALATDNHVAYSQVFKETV

For the compound `Nc1nc2c(c(=O)[nH]1)n(Cc1ccccc1)c(=O)n2[C@@H]1O[C@H](CO)C[C@H]1O` [Compound 33, 2-Amino-7-benzyl-9-((2R,3R,5S)-3-hydroxy-5-(hydroxymethyl)tetrahydrofuran-2-yl)-7,9-dihydro-1H-purine-6,8-dione], the 50% effective concentration (EC50) on human TLR7 is 688 µM. In addition, the “Weighted MEC” value in experiment [1] is 79* μM.
For `Nc1nc2c(c(=O)[nH]1)n(CC#CCO)c(=O)n2[C@@H]1O[C@H](CO)[C@H](O)[C@H]1O` [Compound 11, 2-Amino-9-((2R,3R,4R,5R)-3,4-dihydroxy-5-(hydroxymethyl)tetrahydrofuran-2-yl)-7-(4-hydroxybut-2-yn-1-yl)-7,9-dihydro-1H-purine-6,8-dione], in that order: 249 µM and 79 µM.
For `Nc1nc2c(c(=O)[nH]1)n(C/C=C/CO)c(=O)n2[C@@H]1O[C@H](CO)[C@H](O)[C@H]1O` [Compound 8, 2-Amino-9-((2R,3R,4R,5R)-3,4-dihydroxy-5-(hydroxymethyl)tetrahydrofuran-2-yl)-7-((E)-4-hydroxybut-2-en-1-yl)-7,9-dihydro-1H-purine-6,8-dione], in that order: 413 µM and >100* μM.
For `CCCn1c(=O)n([C@@H]2O[C@H](CO)[C@H](O)[C@H]2O)c2nc(N)[nH]c(=O)c21` [Compound 17, 2-Amino-9-((2R,3R,4R,5R)-3,4-dihydroxy-5-(hydroxymethyl)tetrahydrofuran-2-yl)-7-propyl-7,9-dihydro-1H-purine-6,8-dione], in that order: 337 µM and 100* μM.
In turn, `Nc1nc2c(c(=O)[nH]1)n(CC(F)(F)F)c(=O)n2[C@@H]1O[C@H](CO)[C@H](O)[C@H]1O` [Compound 13, 2-Amino-9-((2R,3R,4R,5R)-3,4-dihydroxy-5-(hydroxymethyl)tetrahydrofuran-2-yl)-7-(2,2,2-trifluoroethyl)-7,9-dihydro-1H-purine-6,8-dione] had a half-maximal effective concentration (EC50) at human TLR7 of 151 µM. In addition, the “Weighted MEC” value in experiment [1] is recorded as 66* μM.
The corresponding values for `COC(=O)CCCn1c(=O)n([C@@H]2O[C@H](CO)[C@H](O)[C@H]2O)c2nc(N)[nH]c(=O)c21` [Compound 21, Methyl 4-(2-amino-9-((2R,3R,4R,5R)-3,4-dihydroxy-5-(hydroxymethyl)tetrahydrofuran-2-yl)-6,8-dioxo-1,6,8,9-tetrahydro-7H-purin-7-yl)butanoate] are 520 µM and >100* μM.
Compound `CCCCn1c(=O)n([C@@H]2O[C@H](CO)[C@H](O)[C@H]2O)c2nc(N)[nH]c(=O)c21` [Compound 18, 2-Amino-7-butyl-9-((2R,3R,4R,5R)-3,4-dihydroxy-5-(hydroxymethyl)tetrahydrofuran-2-yl)-7,9-dihydro-1H-purine-6,8-dione] showed an EC50 at human TLR7 of 330 µM. Also, in experiment [1], the “Weighted MEC” value was “less than or equal to 40 μM and 37 μM”; the “individual MEC values” was less than 100 µM.
For `Nc1nc2c(c(=O)[nH]1)n(Cc1cccc(F)c1)c(=O)n2[C@@H]1O[C@H](CO)C[C@H]1O` [Compound 34, 2-Amino-7-(3-fluorobenzyl)-9-((2R,3R,5S)-3-hydroxy-5-(hydroxymethyl)tetrahydrofuran-2-yl)-7,9-dihydro-1H-purine-6,8-dione], at human TLR7, the 50% effective concentration (EC50) is 512 µM. In addition, in experiment [1], the “Weighted MEC” value is “less than or equal to 40 μM and 40 μM”; the “individual MEC values” is less than 100 µM.
`C=CCn1c(=O)n([C@@H]2O[C@H](CO)[C@H](O)[C@H]2O)c2nc(N)[nH]c(=O)c21` [Compound 2, 7-Allyl-2-amino-9-((2R,3R,4R,5R)-3,4-dihydroxy-5-(hydroxymethyl)tetrahydrofuran-2-yl)-7,9-dihydro-1H-purine-6,8-dione] registered an EC50 at human TLR7 of 298 µM. In addition, the “Weighted MEC” value in experiment [1] was found to be 79 µM.
On to `Nc1nc2c(c(=O)[nH]1)n(CCCC(=O)O)c(=O)n2[C@@H]1O[C@H](CO)[C@H](O)[C@H]1O` [Compound 20, 4-(2-Amino-9-((2R,3R,4R,5R)-3,4-dihydroxy-5-(hydroxymethyl)tetrahydrofuran-2-yl)-6,8-dioxo-1,6,8,9-tetrahydro-7H-purin-7-yl)butanoic Acid], for which the half-maximal effective concentration (EC50) on human TLR7 was found to be 79 µM. In addition, in experiment [1], the “Weighted MEC” value is >100* μM.
Turning to `COC(=O)Cn1c(=O)n([C@@H]2O[C@H](CO)[C@H](O)[C@H]2O)c2nc(N)[nH]c(=O)c21` [Compound 12, Methyl 2-(2-amino-9-((2R,3R,4R,5R)-3,4-dihydroxy-5-(hydroxymethyl)tetrahydrofuran-2-yl)-6,8-dioxo-1,6,8,9-tetrahydro-7H-purin-7-yl)acetate], at human TLR7, a half-maximal response (EC50) required 407 µM. In addition, the “Weighted MEC” value in experiment [1] is listed as >100* μM.
The corresponding values for `Nc1nc2c(c(=O)[nH]1)n(CC(F)F)c(=O)n2[C@@H]1O[C@H](CO)[C@H](O)[C@H]1O` [Compound 14, 2-Amino-7-(2,2-difluoroethyl)-9-((2R,3R,4R,5R)-3,4-dihydroxy-5-(hydroxymethyl)tetrahydrofuran-2-yl)-7,9-dihydro-1H-purine-6,8-dione] are 180 µM and 100* μM.
For `C=CCn1c(=O)n([C@@H]2O[C@H](CO)C[C@H]2O)c2nc(N)[nH]c(=O)c21` [Compound 36, 7-Allyl-2-amino-9-((2R,3R,5S)-3-hydroxy-5-(hydroxymethyl)tetrahydrofuran-2-yl)-7,9-dihydro-1H-purine-6,8-dione], in that order: 1210 µM and 100 µM.
For `Nc1nc2c(c(=O)[nH]1)n(C/C=C/C(=O)O)c(=O)n2[C@@H]1O[C@H](CO)[C@H](O)[C@H]1O` [Compound 9, (E)-4-(2-Amino-9-((2R,3R,4R,5R)-3,4-dihydroxy-5-(hydroxymethyl)tetrahydrofuran-2-yl)-6,8-dioxo-1,6,8,9-tetrahydro-7H-purin-7-yl)but-2-enoic Acid], in that order: 15 µM and >100* μM.
On human TLR7, `COCCn1c(=O)n([C@@H]2O[C@H](CO)[C@H](O)[C@H]2O)c2nc(N)[nH]c(=O)c21` [Compound 22, 2-Amino-9-((2R,3R,4R,5R)-3,4-dihydroxy-5-(hydroxymethyl)tetrahydrofuran-2-yl)-7-(2-methoxyethyl)-7,9-dihydro-1H-purine-6,8-dione] came in with a concentration giving a half-maximal response (EC50) of 567 µM. In addition, in experiment [1], the “Weighted MEC” value was >100* μM.
For `Nc1nc2c(c(=O)[nH]1)n(Cc1ccc(C(F)(F)F)cc1)c(=O)n2[C@@H]1O[C@H](CO)C[C@H]1O` [Compound 35, 2-Amino-9-((2R,3R,5S)-3-hydroxy-5-(hydroxymethyl)tetrahydrofuran-2-yl)-7-(4-(trifluoromethyl)benzyl)-7,9-dihydro-1H-purine-6,8-dione], in that order: 1160 µM and 79* μM.
At human TLR7, `NCCn1c(=O)n([C@@H]2O[C@H](CO)[C@H](O)[C@H]2O)c2nc(N)[nH]c(=O)c21` [Compound 23, 2-Amino-7-(2-aminoethyl)-9-((2R,3R,4R,5R)-3,4-dihydroxy-5-(hydroxymethyl)tetrahydrofuran-2-yl)-7,9-dihydro-1H-purine-6,8-dione hydrochloride] had a 50% effective concentration (EC50) of more than 500 µM.
`CC#CCn1c(=O)n([C@@H]2O[C@H](CO)[C@H](O)[C@H]2O)c2nc(N)[nH]c(=O)c21` [Compound 6, 2-Amino-7-(but-2-yn-1-yl)-9-((2R,3R,4R,5R)-3,4-dihydroxy-5-(hydroxymethyl)tetrahydrofuran-2-yl)-7,9-dihydro-1H-purine-6,8-dione] gave an EC50 on human TLR7 of 835 µM. Besides, in experiment [1], the “Weighted MEC” value worked out at 79 µM.
The corresponding values for `CCCCn1c(=O)n([C@@H]2O[C@H](CO)C[C@H]2O)c2nc(N)[nH]c(=O)c21` [Compound 37, 2-Amino-7-butyl-9-((2R,3R,5S)-3-hydroxy-5-(hydroxymethyl)tetrahydrofuran-2-yl)-7,9-dihydro-1H-purine-6,8-dione] are 564 µM and 50 µM.
The compound `Cn1c(=O)n([C@@H]2O[C@H](CO)[C@H](O)[C@H]2O)c2nc(N)[nH]c(=O)c21` [Compound 15, 2-Amino-9-((2R,3R,4R,5R)-3,4-dihydroxy-5-(hydroxymethyl)tetrahydrofuran-2-yl)-7-methyl-7,9-dihydro-1H-purine-6,8-dione] showed an EC50 on human TLR7 of more than 500 µM.
